The target of data set [1] is T1, 5-HT3A (Homo sapiens, UniProt P46098).
T1 construct: expressed in transfected cells
As to the kind of experiment: Off-target two-electrode voltage clamp assay, 5-HT3A. The data set is classed as cell-based. The note with it: 10 μM, mean ± SEM. The method, then: (§1) The NIMH PDSP is Directed by Bryan L. Roth at the University of North Carolina at Chapel Hill and Project Officer Jamie Driscoll at NIMH, Bethesda Md., USA. Radioligand binding was measured in the presence of 10 μM 1180-420 and 1180-447. […] For experimental details please refer to the PDSP web site https://pdsp.unc.edu/ims/investigator/web/. Both 1180-420 and 1180-447 were also tested at AMPA, nicotinic acetylcholine, serotonin, GABA, and glycine ion channels using a two-electrode voltage clamp assay.

Data set [2] deals with T2, 5-HT1E (Homo sapiens, UniProt P28566).
T2 construct: NIMH PDSP (assay provider)
T2 sequence (P28566 whole entry, species assumed): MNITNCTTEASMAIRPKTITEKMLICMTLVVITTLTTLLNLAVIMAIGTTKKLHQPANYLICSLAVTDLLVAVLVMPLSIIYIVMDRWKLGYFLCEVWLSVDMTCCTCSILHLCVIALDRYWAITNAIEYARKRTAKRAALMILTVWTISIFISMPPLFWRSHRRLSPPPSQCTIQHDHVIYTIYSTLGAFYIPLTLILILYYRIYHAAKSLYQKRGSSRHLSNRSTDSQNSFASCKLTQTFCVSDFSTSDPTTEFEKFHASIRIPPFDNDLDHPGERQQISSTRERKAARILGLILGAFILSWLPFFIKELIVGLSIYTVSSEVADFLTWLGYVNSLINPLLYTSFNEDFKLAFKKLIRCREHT
As to the kind of experiment: NIMH PDSP radioligand binding, 5-HT1E. The note with it: read-out: Radioligand binding in 10 μM compound (% control). The procedure: as §1
(§2) Receptor binding profiles of compound 1180-447 were generously provided by the National Institute of Mental Health's Psychoactive Drug Screening Program, Contract # HHSN-271-2013-00017-C(NIMH PDSP). The NIMH PDSP is directed by Bryan L. Roth at the University of North Carolina at Chapel Hill and Project Officer Jamie Driscoll at NIMH, Bethesda Md., USA. Radioligand binding was measured in the presence of 10 μM 1180-447. […] For experimental details please refer to the PDSP web site https://pdsp.unc.edu/ims/investigator/web/.
(§3) The NIMH PDSP is Directed by Bryan L. Roth at the University of North Carolina at Chapel Hill and Project Officer Jamie Driscoll at NIMH, Bethesda Md., USA. Radioligand binding was measured in the presence of 10 μM 1180-420. […] For experimental details please refer to the PDSP web site https://pdsp.unc.edu/ims/investigator/web/.

In data set [3] the target is T3, 5-HT6 (Homo sapiens, UniProt P50406).
T3 construct: NIMH PDSP (assay provider)
T3 sequence (P50406 whole entry, species assumed): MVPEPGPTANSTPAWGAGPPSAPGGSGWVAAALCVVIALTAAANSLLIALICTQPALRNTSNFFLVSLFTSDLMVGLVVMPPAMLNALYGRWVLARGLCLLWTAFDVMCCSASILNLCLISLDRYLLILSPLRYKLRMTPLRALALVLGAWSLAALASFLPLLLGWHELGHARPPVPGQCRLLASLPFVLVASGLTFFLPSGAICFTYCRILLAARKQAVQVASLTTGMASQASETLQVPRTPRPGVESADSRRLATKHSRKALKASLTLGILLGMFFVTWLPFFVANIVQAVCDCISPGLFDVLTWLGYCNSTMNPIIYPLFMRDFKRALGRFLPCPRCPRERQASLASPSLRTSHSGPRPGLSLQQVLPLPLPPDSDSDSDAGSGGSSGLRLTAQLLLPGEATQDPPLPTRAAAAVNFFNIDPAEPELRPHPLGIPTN
As to the kind of experiment: NIMH PDSP radioligand binding, 5-HT6. The note with it: read-out: Radioligand binding in 10 μM compound (% control). The procedure:
as §1, §2, §3

The target in data set [4] is T4, D3 (Homo sapiens, UniProt P35462).
T4 construct: NIMH PDSP (assay provider)
T4 sequence (P35462 whole entry): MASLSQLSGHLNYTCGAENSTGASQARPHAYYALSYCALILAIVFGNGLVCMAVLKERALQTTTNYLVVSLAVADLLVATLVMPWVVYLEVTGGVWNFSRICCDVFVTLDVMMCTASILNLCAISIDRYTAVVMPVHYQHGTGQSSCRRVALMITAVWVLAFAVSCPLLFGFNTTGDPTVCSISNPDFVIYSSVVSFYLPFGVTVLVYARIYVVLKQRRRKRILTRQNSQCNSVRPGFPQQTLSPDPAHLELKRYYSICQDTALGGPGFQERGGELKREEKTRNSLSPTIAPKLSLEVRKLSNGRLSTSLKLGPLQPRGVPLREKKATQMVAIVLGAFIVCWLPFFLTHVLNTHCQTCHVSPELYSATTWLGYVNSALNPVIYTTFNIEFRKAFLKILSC
As to the kind of experiment: NIMH PDSP radioligand binding, D3. The settings on record: read-out: Radioligand binding in 10 μM compound (% control). The method, then: as §1, §2, §3

The target of data set [5] is T5, D4 (Homo sapiens, UniProt P21917).
T5 construct: NIMH PDSP (assay provider)
T5 sequence (P21917 whole entry): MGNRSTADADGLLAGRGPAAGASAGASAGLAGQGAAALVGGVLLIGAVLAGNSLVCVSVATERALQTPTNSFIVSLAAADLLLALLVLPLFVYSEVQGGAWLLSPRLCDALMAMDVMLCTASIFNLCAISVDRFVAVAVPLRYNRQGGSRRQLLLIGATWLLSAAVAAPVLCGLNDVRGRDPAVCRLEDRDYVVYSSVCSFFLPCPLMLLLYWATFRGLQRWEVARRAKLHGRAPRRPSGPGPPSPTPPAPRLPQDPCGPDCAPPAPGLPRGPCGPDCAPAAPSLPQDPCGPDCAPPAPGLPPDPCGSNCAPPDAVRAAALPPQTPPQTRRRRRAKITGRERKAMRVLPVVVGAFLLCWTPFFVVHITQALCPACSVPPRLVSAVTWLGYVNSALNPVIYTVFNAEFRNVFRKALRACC
Kind of data set: NIMH PDSP radioligand binding, D4. The settings on record: read-out: Radioligand binding in 10 μM compound (% control). The procedure:
as §1, §2, §3

In data set [6] the target is κ-opioid receptor (Homo sapiens, UniProt P41145). Kind of data set: NIMH PDSP radioligand binding, κ-opioid receptor. The note with it: for remaining activity at 10 µM: read-out: Radioligand binding in 10 μM compound (% control); for Ki: read-out: pKi values from non-linear regression of radioligand competition binding isotherms (converted). The method, then:
as §1, §2, §3

Data set [7] addresses H3 (Homo sapiens, UniProt Q9Y5N1). As to the kind of experiment: NIMH PDSP radioligand binding, H3. The note with it: read-out: Radioligand binding in 10 μM compound (% control). The procedure: as §1, §2, §3
Data set [8] addresses M4 (Homo sapiens, UniProt P08173). Kind of data set: NIMH PDSP radioligand binding, M4. The settings on record: read-out: Radioligand binding in 10 μM compound (% control). The method, then:
as §1, §2, §3

In data set [9] the test system is CNS receptors. Kind of data set: Off-target profile, NIMH PDSP CNS receptors (panel summary). Format: binding. The settings on record: 10 μM. The procedure:
as §1, §2, §3

For data set [10] the following is noted: nephelometer, oocyte recording solution.
Data set [11] has as its target T6, α1-Glycine (Homo sapiens, UniProt P23415).
T6 construct: expressed in transfected cells
As to the kind of experiment: Off-target two-electrode voltage clamp assay, α1-Glycine. The data set is classed as cell-based. The note with it: 10 μM, mean ± SEM. The procedure: as §1

The text below walks through data of patent publication US11738008B2, “N-methyl-D-aspartic acid receptor modulators” (Emory University, priority 2018, dated 2023).

By Solubility is commonly meant the dissolved amount per volume that the medium holds.

Converted amounts (≈) assume the structure as drawn.

κ-opioid receptor, sequence (P41145 whole entry): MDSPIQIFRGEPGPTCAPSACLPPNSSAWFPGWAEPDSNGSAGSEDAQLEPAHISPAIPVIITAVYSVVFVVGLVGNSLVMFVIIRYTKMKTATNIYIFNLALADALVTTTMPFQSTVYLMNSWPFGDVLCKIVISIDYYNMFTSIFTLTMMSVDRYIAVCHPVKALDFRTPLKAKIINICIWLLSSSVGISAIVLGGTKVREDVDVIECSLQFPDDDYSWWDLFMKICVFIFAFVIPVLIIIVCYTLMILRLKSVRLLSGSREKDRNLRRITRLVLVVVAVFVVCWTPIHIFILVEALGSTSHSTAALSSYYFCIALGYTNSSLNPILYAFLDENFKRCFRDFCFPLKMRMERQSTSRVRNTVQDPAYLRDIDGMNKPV
M4, sequence (P08173 whole entry): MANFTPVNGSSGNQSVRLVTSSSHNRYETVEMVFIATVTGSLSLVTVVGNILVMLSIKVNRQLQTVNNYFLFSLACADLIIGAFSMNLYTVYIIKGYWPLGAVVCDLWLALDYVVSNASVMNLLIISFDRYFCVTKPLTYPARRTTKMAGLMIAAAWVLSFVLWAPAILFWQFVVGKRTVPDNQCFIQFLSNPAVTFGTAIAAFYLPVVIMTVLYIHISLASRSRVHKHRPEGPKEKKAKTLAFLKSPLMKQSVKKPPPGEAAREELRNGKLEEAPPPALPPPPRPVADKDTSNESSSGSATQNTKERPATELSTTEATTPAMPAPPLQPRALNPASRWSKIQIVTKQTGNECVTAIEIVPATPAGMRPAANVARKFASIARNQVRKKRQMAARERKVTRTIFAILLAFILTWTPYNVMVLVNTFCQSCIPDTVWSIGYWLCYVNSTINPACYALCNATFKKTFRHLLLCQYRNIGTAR
H3, sequence (Q9Y5N1 whole entry): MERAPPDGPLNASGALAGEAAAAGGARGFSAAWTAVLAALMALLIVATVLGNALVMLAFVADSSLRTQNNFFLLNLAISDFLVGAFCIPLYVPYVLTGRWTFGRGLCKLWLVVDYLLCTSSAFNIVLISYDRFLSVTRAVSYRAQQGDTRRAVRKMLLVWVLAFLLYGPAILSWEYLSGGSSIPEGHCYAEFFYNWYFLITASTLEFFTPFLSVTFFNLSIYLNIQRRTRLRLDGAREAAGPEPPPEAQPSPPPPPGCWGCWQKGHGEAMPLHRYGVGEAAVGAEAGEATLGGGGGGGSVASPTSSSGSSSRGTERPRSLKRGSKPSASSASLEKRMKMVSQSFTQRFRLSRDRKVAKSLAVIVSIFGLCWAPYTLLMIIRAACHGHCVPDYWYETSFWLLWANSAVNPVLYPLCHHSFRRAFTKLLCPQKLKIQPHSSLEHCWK
T6 sequence (P23415 29-457): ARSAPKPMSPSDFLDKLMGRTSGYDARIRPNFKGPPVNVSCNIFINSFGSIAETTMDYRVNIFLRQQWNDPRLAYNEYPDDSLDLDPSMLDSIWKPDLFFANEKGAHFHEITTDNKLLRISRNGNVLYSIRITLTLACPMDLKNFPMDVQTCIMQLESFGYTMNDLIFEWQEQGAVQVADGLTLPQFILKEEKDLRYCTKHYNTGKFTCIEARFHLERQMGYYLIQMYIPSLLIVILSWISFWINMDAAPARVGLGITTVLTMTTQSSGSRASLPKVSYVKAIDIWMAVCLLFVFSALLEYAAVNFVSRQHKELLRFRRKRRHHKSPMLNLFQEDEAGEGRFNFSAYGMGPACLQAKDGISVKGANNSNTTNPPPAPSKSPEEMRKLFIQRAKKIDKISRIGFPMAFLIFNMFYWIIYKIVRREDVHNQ
T1 sequence (P46098 24-478, species assumed): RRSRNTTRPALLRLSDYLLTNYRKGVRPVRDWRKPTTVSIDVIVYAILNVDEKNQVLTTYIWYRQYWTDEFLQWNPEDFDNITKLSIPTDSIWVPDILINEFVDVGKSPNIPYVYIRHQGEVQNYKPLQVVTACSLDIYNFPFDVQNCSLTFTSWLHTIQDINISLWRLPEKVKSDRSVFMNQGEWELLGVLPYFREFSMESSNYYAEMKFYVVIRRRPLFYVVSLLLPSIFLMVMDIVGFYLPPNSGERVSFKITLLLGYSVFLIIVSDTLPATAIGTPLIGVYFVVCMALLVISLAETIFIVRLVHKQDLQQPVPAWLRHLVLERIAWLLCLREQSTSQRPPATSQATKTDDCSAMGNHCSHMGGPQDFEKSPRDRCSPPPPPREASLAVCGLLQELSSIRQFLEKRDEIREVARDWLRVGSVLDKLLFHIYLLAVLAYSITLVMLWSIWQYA

Regarding `COc1ccc(OCC2c3cccn3CC(=O)N2Cc2cccc(C(F)(F)F)c2)cc1` (racemic) [1180-447, 1-((4-Methoxyphenoxy)methyl)-2-(3-(trifluoromethyl)benzyl)-1,2-dihydropyrrolo[1,2-a]pyrazin-3(4H)-one], the “% control response” value in data set [1] was determined as 98.1 ± 10.4 % control response. Besides, the remaining activity at 10 µM in data set [2] came out at 80%; in data set [3], 85%; in data set [4], 93%; in [5] it was 101%; in [6], 47%; in [7] it was 79%. In addition, in [8], the remaining activity at 10 µM came to 100%. Besides, in [6], the Ki is 1580 nM. Besides, the “receptors with >50% inhibition / receptors tested” value in [9] is recorded as 4/44. In data set [10], the “Solubility” value is 57 µM (≈ 24.5 µg/mL).

As for `COc1ccc(OCC2c3cccn3CCN2C(=O)c2cccc(Cl)c2)cc1` (stereo not drawn) [1180-420, (3-Chlorophenyl)(1-((4-methoxyphenoxy)methyl)-3,4-dihydropyrrolo[1,2-a]pyrazin-2(1H)-yl)methanone], the “% control response” value in data set [11] worked out at 77.6 ± 4.9 % control response. For the same molecule, the remaining activity at 10 µM in data set [2] came out at 78%; in [3], 75%; in data set [4] it was 71%; in data set [5] it was 90%; in data set [6], 32%; in [7], 99%. In data set [8], the remaining activity at 10 µM came to 84%. In data set [6], the Ki is 1580 nM. Further, the “receptors with >50% inhibition / receptors tested” value in data set [9] was 4/44.
